From patent US5831001A, “Treatment of herpesvirus infection” (priority 1995, dated 1998) come the findings set out here.

For data set [1], the system named is Veto cells.
Data set [2] deals with HSV. Put plainly: plaque reduction assay, inhibition of HSV replication. It is filed as cell-based. The settings on record: for Virus titer: pretreated Veto cell monolayers, plaques counted after 2 to 3 days. On the procedure: Selected compounds were first formulated as 10 mM stocks in water for in vitro and call culture procedures. Then stocks are then diluted into buffers used for specific assays, or into cell culture media. For animal studies peptides are diluted into phosphate buffer saline,
The following procedures were then used to determine inhibitory effects of compounds on the replication of HSV. First, confluent monolayers of Veto cells (continuous passage cell line derived from African Green Monkeys) in 24 well cell culture plates were treated with specified concentrations of peptide for 25 hours. This was accomplished by diluting the stock peptide solution in growth medium used to overlay the monolayers, i.e. growth medium containing 10% fetal bovine serum and 10 ug/ml gentamicin in Dulbecco's MEM (DMEM).
Virus was then allowed to adsorb for 1 hour at 37° C. The virus inoculum was removed and the monolayers are overlayed with DMEM containing 2% FBS, 10 ug/ml gentamicin and specified concentration of peptide. Virus was next allowed to replicate for 2 to 3 days until the plaques were judged to be well developed, and then the monolayers were fixed and stained with a solution of 1% crystal violet in 1% formaldehyde, 70% ethanol. Finally, plaques (each representing a single viable virion) were counted and checked microscopically.
(Plaque reduction counts the foci of infection that form in a cell layer.)

Consider `CC(=O)N[C@H](CCCNC(=N)N)C(=O)N[C@H](CCCNC(=N)N)C(=O)N[C@H](CCCNC(=N)N)C(=O)N[C@H](CCCNC(=N)N)C(=O)N[C@H](CCCNC(=N)N)C(=O)N[C@H](CCCNC(=N)N)C(=O)N[C@H](CCCNC(=N)N)C(=O)N[C@H](CCCNC(=N)N)C(=O)N[C@H](CCCNC(=N)N)C(N)=O` [compound 4C, acetyl-[D-Arg]9 -NH2], for which, in data set [1], the “inhibition of host cell replication” value is given as “no apparent inhibition”. In addition, the “inhibition of viral replication” value in data set [2] (at the concentration tested (5uM)) is listed as at least 95%. In addition, the values for the Virus titer in data set [2] (peptide concentration 0.5 uM) and in data set [2] (peptide concentration 5.0 uM) were 30,000 pfu/ml and 11,000 pfu/ml, respectively.
